From publication PMC6152192, “Novel Methylselenoesters as Antiproliferative Agents” (Molecules : A Journal of Synthetic Chemistry and Natural …, 2017)

Columns and labels:
[1] = test system: HT-29 (colorectal adenocarcinoma); assay: MTT viability assay, HT-29; format: cell-based; details: HT-29, 72 h, MTT; for CC50: read-out: LC50 (the source's name)
Protocol: (§1) The novel compounds were tested against a panel of different cancer lines: PC-3 (prostate adenocarcinoma), MCF7 (mammary adenocarcinoma), HTB-54 (lung carcinoma), K-562 (chronic myelogenous leukemia) and HT-29 (colorectal adenocarcinoma). Two non-malignant cell lines, BEAS-2B (bronchial epithelial) and 184B5 (mammary epithelial) were also included to evaluate the toxicity of the novel synthesized compounds. The antiproliferative activity was measured with the [3-(4,5-dimethylthiazol-2-yl)-2,5-diphenyltetrazolium bromide] (MTT) assay after 72 h treatment. Six concentrations ranging from 0.1 to 100 μM were tested. MSA is largely known as the main CH3SeH putative precursor and was therefore included as positive control. The following parameters were calculated: GI50 (concentration which reduces the growth by 50%), TGI (concentration completely inhibiting growth) and LC50 (concentration that kills 50% of the cells).
(§2) All cells were purchased from the American Type Culture Collection (ATCC, Barcelona, Spain). HT-29 (colorectal adenocarcinoma), HTB-54 (grade III lung carcinoma), MCF7 (mammary adenocarcinoma), PC-3 (grade IV prostate adenocarcinoma) and K-562 (chronic myelogenous leukemia) were cultured in RPMI (Gibco, Madrid, Spain), 10% FBS (Gibco), 100 units/mL penicillin and 100 μg/mL streptomycin (Gibco). BEAS-2B cell line (normal epithelial lung) was cultured in DMEM (Gibco), 10% FBS, 100 units/mL penicillin and 100 μg/mL streptomycin. 184B5 (normal mammary gland) cell line was cultured in DMEM:F12 supplemented with 5% FBS, 1 × ITS (Lonza, Barcelona, Spain), 100 nM hydrocortisone (Sigma-Aldrich), 2 mM sodium pyruvate (Lonza), 20 ng/mL EGF (Sigma-Aldrich), 0.3 nM trans-retinoic acid (Sigma-Aldrich), 100 units/mL penicillin and 100 µg/mL streptomycin. Cells were cultured at 37 °C under 5% CO2.
(§3) Cell viability after treatment was assessed by the well-known 3-(4,5-dimethyl-thiazol-2-yl)-2,5-diphenyltetrazolium bromide (MTT, Sigma-Aldrich) assay. Briefly, 10,000 cells were seeded in 96-well plates, treated and incubated for 72 h. Dilutions of the compounds in cell medium were freshly prepared from a 0.01 M stock in DMSO. After treatment, 50 μL of MTT solution in PBS (2 mg/mL) were added and cells were incubated for 4 h. Medium was removed and 150 μL of DMSO was added to dissolve the formed formazan crystals. Absorbance was read at 550 nm in a microplate absorbance reader (Sunrise, Tecan, Männedorf, Switzerland).

[2] = test system: thioredoxin reductase (TrxR1); assay: Thioredoxin reductase activity assay (NADPH consumption); format: biochemical; details: 100 nM TrxR1, 227 μM NADPH, TE buffer pH 8, 45 min
Protocol: The assay was performed as previously described, but in a final volume of 200 μL in a 96-well plate. Reaction started after addition of 133 μL of TE buffer (20 mM Tris, 2 mM EDTA, pH = 8), 0.227 mM NADPH (freshly prepared) to different concentrations of compounds solved in DMSO and TrxR1 (final concentration 100 nM). NADPH consumption was followed measuring absorbance decrease at 340 nm in a VersaMax microplate reader (Molecular Devices, Sunnyvale, CA, USA) over 45 min. A background sample with DMSO without the compounds was included and subtracted from the values.
Figure 7 Compounds 5 and 15 are substrates for thioredoxin reductase but not for the glutathione-glutaredoxin system. (A) NADPH consumption indicating reduction of compounds 5, 15 or MSA as control by thioredoxin reductase. The reaction mixture contained 100 nM TrxR1, 227 μM NADPH and the corresponding amount of compound in TE buffer (20 mM Tris, 2 mM EDTA pH = 8); (B) NADPH consumption indicating reduction of MSA by glutathione in the presence or absence of glutaredoxin. The reaction mixture contained the corresponding amount of compound, 0.1 M Tris, 2 mM EDTA pH = 8, 0.1 mg/mL BSA, 1 mM GSH, 200 μM NADPH, 0.008 OD/mL yeast GR and 1 μM hGrx1 when required. Only results for MSA are shown, as compounds 5 and 15 were not reduced.

[3] = test system: PC-3 (prostate adenocarcinoma); assay: MTT viability assay, PC-3; format: cell-based; details: PC-3, 72 h, MTT; for CC50: read-out: LC50 (the source's name)
Protocol: as §1, §2, §3

MCF7 cells = assay: Cell death analysis (TUNEL, Apo-Direct kit, flow cytometry); format: cell-based; details: for dead cells: MCF7, 30 μM, TUNEL; for cell death time dependence: MCF7, time-course, 15 μM compound 5 or 30 μM compound 15, TUNEL
Protocol: Induction of cell death is the major aim of antitumor drugs. We analyzed cell death progression using the TUNEL technique (in the Apo-Direct kit), which is based on DNA fragmentation. MCF7 cells were treated with increasing concentrations of compounds 5 and 15 for 24 h or with 30 μM of compound 15 or 15 μM of compound 5 for different times. The negative control was treated with vehicle, and camptothecin (6 μM) was included as a positive control.
3 × 10^6 or 2 × 10^6 MCF7 cells were seeded in 25 cm^2 flasks for treatments up to 24 h or 48 h, respectively. DMSO (vehicle) or the dissolved compounds were added 24 h after seeding and cells were incubated for different times at 37 °C under 5% CO2. Cell cycle and cell death were analyzed simultaneously with the Apo-Direct kit (BD Pharmingen, Madrid, Spain), following the manufacturer’s protocol. Briefly, cells were fixed in 1% paraformaldehyde for 45 min at 0 °C, washed with PBS and incubated for at least 30 min in 70% ethanol on ice. Cells were then stained both with FITC-dUTP (1 h, 37 °C) and propidium iodide (30 min, room temperature) and analyzed by flow cytometry using a Coulter Epics XL cytometer (Beckman Coulter, Brea, CA, USA).
Figure 5 Cell death induction is dose and time-dependent for compound 15 in MCF7. MCF7 cells were treated with vehicle (control) or increasing doses of compound 5 or 15 for 24 h. For the time-course experiment, MCF7 cells were treated with vehicle (control), compound 5 (15 μM) or compound 15 (30 μM) for different times. Camptothecin (6 μM) was included as positive control. Cells were stained with the Apo-Direct kit (TUNEL assay) and analyzed by flow cytometry. (A) Dose-dependent cell death at 24 h; (B) Time-course analysis of cell death.

| Substance | GI50 [1] | TGI [1] | CC50 [1] | reduction by TrxR1 (NADPH consumption) [2] | GI50 [3] | CC50 [3] | dead cells (MCF7 cells; 4 h) | dead cells (MCF7 cells; 48 h) | cell death time dependence (MCF7 cells) | TGI [3] |
| --- | --- | --- | --- | --- | --- | --- | --- | --- | --- | --- |
| Dimethyl 2,5-furandicarboselenoate [Compound 15] | 3 ± 0.5 µM | 6.6 ± 0.4 µM | 35.8 ± 5 µM | substrates only for TrxR1 | 4.8 ± 0.8 µM | 47.8 ± 4.4 µM | 20% | 80% | caused cell death in a time-dependent manner |  |
| Methyl 3-chlorothiophen-2-carboselenoate [Compound 5] | 3.6 ± 0.3 µM | 6.3 ± 0.2 µM | 8.9 ± 0.2 µM | substrates only for TrxR1 | 8.6 ± 1.7 µM | 91.6 ± 3.9 µM |  |  | highest values of cell death for compound 5 were observed after 4 h treatment | 47.7 ± 2.9 µM |
